Laboratory results from paper PMC3762062, “Cloning, overexpression and biocatalytic exploration of a novel Baeyer-Villiger monooxygenase from Aspergillus fumigatus Af293” (AMB Express, 2013).
Like-named read-outs stand apart in the source and are kept apart here.

How the values were obtained:
BVMOAf1 (PTDH-BVMOAf1) [1] = molecular target: T1, BVMOAf1 (PTDH-BVMOAf1) (Aspergillus fumigatus, UniProt Q4WAZ0); assay: NADPH consumption at […] nm; type: biochemical; details: air-saturated 50 mM Tris/HCl pH 8.0, 25°C
T1 construct: gene psoF; Truncated N-terminal BVMO domain (1614 bp, 367 C-terminal residues of the 905 deleted); pCRE2 vector, E. coli TOP10; fusion kept; natural Gln in place of His in the BVMO motif (H173Q)

CCSCc1ccccc1 = assay: purified protein; type: biochemical, Aspergillus fumigatus; details: 100 μM NADPH, air-saturated 50 mM Tris/HCl pH 8.0, 25°C
BVMOAf1 (PTDH-BVMOAf1) [2] = molecular target: T1, BVMOAf1 (PTDH-BVMOAf1); assay: UV-Vis absorption of purified holo flavoprotein, FAD release by SDS; type: binding; details: FAD 100 μM in lysis buffer; Tris/HCl pH 8.0
[3] = 100 μM NADPH, read-out: K M (μ M )

T1 sequence (Q4WAZ0 1-538): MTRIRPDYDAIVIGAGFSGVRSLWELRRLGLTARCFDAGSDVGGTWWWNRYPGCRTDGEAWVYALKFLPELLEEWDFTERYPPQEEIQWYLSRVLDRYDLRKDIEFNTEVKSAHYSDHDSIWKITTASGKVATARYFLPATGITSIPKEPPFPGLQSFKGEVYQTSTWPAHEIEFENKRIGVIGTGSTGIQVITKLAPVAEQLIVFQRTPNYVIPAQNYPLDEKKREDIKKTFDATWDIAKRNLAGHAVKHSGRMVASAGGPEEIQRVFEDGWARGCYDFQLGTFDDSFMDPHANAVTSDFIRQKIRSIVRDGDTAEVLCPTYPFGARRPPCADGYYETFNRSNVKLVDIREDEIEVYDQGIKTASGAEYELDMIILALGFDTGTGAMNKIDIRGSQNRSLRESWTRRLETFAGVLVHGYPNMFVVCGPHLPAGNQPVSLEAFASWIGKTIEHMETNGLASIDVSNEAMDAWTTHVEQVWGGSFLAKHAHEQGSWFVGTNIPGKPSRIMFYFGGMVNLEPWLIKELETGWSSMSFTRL

## NC(=O)C1=CN([C@@H]2O[C@H](COP(=O)(O)OP(=O)(O)OC[C@H]3O[C@@H](n4cnc5c(N)ncnc54)[C@H](O)[C@@H]3O)[C@@H](O)[C@H]2O)C=CC1
BVMOAf1 (PTDH-BVMOAf1) [1]; [3]
  Km: 118.8 ± 0.1 µM

## BVMOAf1 (PTDH-BVMOAf1) (Aspergillus fumigatus Af293)
CCSCc1ccccc1
  Km: 23.5 ± 0.1 µM
  kcat: 0.47 ± 0.04 s⁻¹
  kcat/Km: 20000 M⁻¹ s⁻¹

## Cc1cc2nc3c(=O)[nH]c(=O)nc-3n(C[C@H](O)[C@H](O)[C@H](O)COP(=O)(O)OP(=O)(O)OC[C@H]3O[C@@H](n4cnc5c(N)ncnc54)[C@H](O)[C@@H]3O)c2cc1C [FAD]
BVMOAf1 (PTDH-BVMOAf1) [2]
  UV-Vis absorption of purified holo flavoprotein, FAD release by SDS: yellow fractions containing FAD-bound protein

## NC(=O)C1=CN([C@@H]2O[C@H](COP(=O)(O)OP(=O)(O)OC[C@H]3O[C@@H](n4cnc5c(N)ncnc54)[C@H](OP(=O)(O)O)[C@@H]3O)[C@@H](O)[C@H]2O)C=CC1 [[drawing 5]]
BVMOAf1 (PTDH-BVMOAf1) [1]; [3]
  Km: 179.8 ± 0.1 µM

## NC(=O)C1=CN([C@@H]2O[C@H](COP(=O)(O)OP(=O)(O)OC[C@H]3O[C@@H](n4cnc5c(N)ncnc54)[C@H](OP(=O)(O)O)[C@@H]3O)[C@@H](O)[C@H]2O)C=CC1 [NADPH]
BVMOAf1 (PTDH-BVMOAf1) [1]; rac-bicyclo[3.2.0]hept-2-en-6-one 2.0 mM (typical mixture)
  Km: < 5 µM
